The target of this test is T1, tyrosyl-DNA phosphodiesterase 2 (hTDP2-CAT) (Homo sapiens, UniProt O95551, C273S).
T1 construct: gene TDP2; catalytic domain, residues 113–362
T1 sequence (O95551 113-362 C273S): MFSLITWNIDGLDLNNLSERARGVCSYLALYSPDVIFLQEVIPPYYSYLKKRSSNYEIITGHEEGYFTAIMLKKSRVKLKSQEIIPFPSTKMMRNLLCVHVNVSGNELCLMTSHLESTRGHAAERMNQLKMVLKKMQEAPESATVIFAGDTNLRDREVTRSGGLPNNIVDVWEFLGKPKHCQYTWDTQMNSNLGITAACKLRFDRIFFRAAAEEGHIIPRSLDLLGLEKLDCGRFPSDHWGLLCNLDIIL
The test is described as follows: fluorescence-based […]'-phosphotyrosyl oligonucleotide enzyme assay. It is filed as biochemical.

Molecule `N#Cc1ccc2cc3c(=O)[nH]c(=O)nc-3n(-c3cccc(CO)c3)c2c1` [compound 149, 149] came in with a half-maximal inhibitory concentration (IC50) of 489 nM.

Broadly, the IC50 is the concentration that gives 50% inhibition. A high value points to weaker potency.

These data come from paper PMC4925160, “Mode of action of DNA-competitive small molecule inhibitors of tyrosyl DNA phosphodiesterase 2” (Biochemical Journal, 2016).
